Results published in patent US20050069532A1, “Treatment of bacterial infection with elastase” (priority 2002, published 2005).
Residues, ends and D or L forms follow the SMILES beside them. *: point of attachment. MeOSuc = COC(=O)CCC(=O)*; CH2Cl = ClC*

Key:
[1] = biological target: neutrophil elastase in hNEGP (Homo sapiens, UniProt P08246); format: biochemical
Neutrophil elastase [2] = biological target: T1, Neutrophil elastase (Homo sapiens, UniProt P08246); assay: Neutrophil elastase enzymatic assay in hNEGP (N-methoxysuccinyl-Ala-Ala-Pro-Val-p-nitroanilide substrate); settings: hNEGP pretreated with inhibitor (PMSF 1 mM, rm temp 20 min)
T1 sequence (P08246 30-267): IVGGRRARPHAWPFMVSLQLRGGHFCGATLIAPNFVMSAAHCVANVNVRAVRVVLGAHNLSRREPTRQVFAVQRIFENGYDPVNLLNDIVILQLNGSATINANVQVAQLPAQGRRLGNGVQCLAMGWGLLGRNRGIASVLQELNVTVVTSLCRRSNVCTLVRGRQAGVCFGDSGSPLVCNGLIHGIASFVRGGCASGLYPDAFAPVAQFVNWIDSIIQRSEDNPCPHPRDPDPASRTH
Procedure: Neutrophil elastase activity of intact neutrophils was determined as previously described (Huang et al., “Effect of Trifluoromethyl Ketone-Based Elastase Inhibitors on Neutrophil Function in Vitro,” J Leukoc Biol 64:322-330 (1998), which is hereby incorporated by reference).

[3] = tested on: Shigella virulence proteins (IpaA, IpaB, IpaC, IcsA); format: biochemical, Shigella flexneri
[4] = tested on: wild-type Shigella flexneri (M90T); format: cell-based
MxiA and MxiD = format: biochemical, Shigella
[5] = tested on: Secreted proteins from Shigella; format: biochemical
[6] = tested on: Secreted proteins from wild type Salmonella typhimurium (strain SL1344); format: biochemical
[7] = tested on: OmpA of nonpathogenic Escherichia coli; settings: 4 h with 106 bacteria; cited from earlier work
[8] = tested on: human neutrophils infected with Shigella; format: cell-based; settings: 20 μM
[9] = tested on: human neutrophils infected with wild type Shigella; format: cell-based; settings: 20 μM, 10 bacteria/neutrophil
[10] = tested on: human neutrophils infected with Shigella; settings: 20 μM, LDH release after 2 h incubation
neutrophils [11] = settings: cited from earlier work
neutrophils [12] = assay: Cytotoxicity of inhibitor by lactate dehydrogenase (LDH) release
neutrophil elastase [13] = settings: cited from earlier work
Cathepsin G = settings: cited from earlier work
Proteinase 3 = settings: cited from earlier work

Chain of OmpA of nonpathogenic Escherichia coli (P0A910 22-346): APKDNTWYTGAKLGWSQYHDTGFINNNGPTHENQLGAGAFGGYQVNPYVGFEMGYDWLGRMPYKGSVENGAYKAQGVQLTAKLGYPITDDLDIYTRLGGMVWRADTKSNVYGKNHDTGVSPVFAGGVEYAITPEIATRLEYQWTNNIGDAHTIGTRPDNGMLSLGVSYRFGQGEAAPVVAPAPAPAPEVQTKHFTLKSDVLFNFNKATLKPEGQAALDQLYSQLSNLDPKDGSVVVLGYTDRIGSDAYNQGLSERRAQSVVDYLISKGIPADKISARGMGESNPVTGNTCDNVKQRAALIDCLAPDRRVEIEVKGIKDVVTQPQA
Chain of InvG (P35672 25-562): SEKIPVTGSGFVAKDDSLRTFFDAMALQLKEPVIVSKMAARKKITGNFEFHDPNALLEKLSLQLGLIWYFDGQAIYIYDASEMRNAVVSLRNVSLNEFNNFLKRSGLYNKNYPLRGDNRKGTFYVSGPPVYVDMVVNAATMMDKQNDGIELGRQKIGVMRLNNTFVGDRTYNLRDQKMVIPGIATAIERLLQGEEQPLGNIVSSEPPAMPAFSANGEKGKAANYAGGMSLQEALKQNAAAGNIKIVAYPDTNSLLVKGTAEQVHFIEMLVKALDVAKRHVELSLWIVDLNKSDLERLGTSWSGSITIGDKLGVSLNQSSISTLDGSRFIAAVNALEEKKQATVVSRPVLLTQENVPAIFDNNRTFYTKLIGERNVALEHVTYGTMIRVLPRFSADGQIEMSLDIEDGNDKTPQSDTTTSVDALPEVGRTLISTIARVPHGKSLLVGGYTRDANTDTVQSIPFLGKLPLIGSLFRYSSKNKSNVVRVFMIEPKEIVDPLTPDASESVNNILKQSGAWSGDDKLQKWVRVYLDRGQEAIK

With `COC(=O)CCC(=O)N[C@@H](C)C(=O)N[C@@H](C)C(=O)N1CCC[C@H]1C(=O)N[C@H](C(=O)CCl)C(C)C` [MeOSuc-AAPV-cmk, MeOSucAlaAlaProVal-chloromethyl ketone] (MeOSuc-AAPV-CH2Cl) as the molecule, how does the “blocking of hNEGP degradation of IpaA, B, C and IcsA” value (shortened to “blocking”) [1] read?
Its value is “effectively blocked degradation”.

What about the “inhibition of neutrophil elastase activity in hNEGP” value (from here on “inhibition”) (Neutrophil elastase [2]) of the same molecule?
The value was “completely inhibited”.

Which “degradation of Shigella effectors” value [3] does the source give for Cathepsin G here?
The value was “did not degrade”.

With neutrophil elastase as the molecule, how does the “neutrophil elastase concentration affecting bacterial viability” value [4] read?
The value was > 2,000 nM.

What about the “degradation of OmpA in Shigella or E. coli” value [3] of the same molecule?
Its value is “not degraded”.

And the “neutrophil elastase concentration at which IcsA was degraded” value [3]?
Its value is 1.2 nM.

And the “neutrophil elastase concentration that cleaved Shigella virulence proteins significantly” value [3]?
Its value is at least 1.2 nM.

And the “degradation of MxiA and MxiD” value (MxiA and MxiD)?
Its value is “not degraded”.

And the “cleavage of proteins not associated with virulence (SepA and OspF)” value [5]?
Its value is “remained intact”.

What about the “cleavage of virulence factors (e.g. VirA and the Ipas)” value [5] of the same molecule?
Its value is “cleaved”.

And the “degradation of FliB and FliC” value [6]?
The value was “not degraded”.

And the “degradation of SipA, B, C and HAPs” value [6]?
Its value is “degraded”.

And the “degradation of InvG” value (InvG)?
Its value is “not degraded”.

And the “neutrophil elastase concentration that partially digests OmpA” value [7]?
The value was 2 µM.

With `O=S(=O)(F)Cc1ccccc1` [PMSF, phenylmethylsulfonyl fluoride] as the molecule, how does the “blocking” value [1] read?
The value was “blocked the degradation”.

What about the “inhibition” value (Neutrophil elastase [2]) of the same molecule?
The value was “completely inhibited”.

For `CC(C)C(NC(=O)[C@@H]1CCCN1C(=O)[C@@H](NC(=O)c1ccc(C(=O)NS(=O)(=O)c2ccc(Br)cc2)cc1)C(C)C)C(=O)C(F)(F)F` (stereo partly drawn) [ICI-200355], which “location of non-invasive Shigella strain in neutrophils incubated with inhibitor” value [8] is on record?
Its value is “remained in the phagosome”.

What about the “location of wild type Shigella in neutrophils pre-incubated with inhibitor” value ([8]; fixed 30 min post-infection) of the same molecule?
Its value is “free in the cytoplasm”.

And the “Shigella survival in inhibitor-treated neutrophils versus controls” value [9]?
Its value is “survived indeed better”.

And the “neutrophil cell death with noninvasive Shigella control strains after inhibitor pretreatment” value [10]?
Its value is “no cell death”.

And the “effect on ingestion or killing of non-virulent bacteria” value (neutrophils [11])?
The value was “does not affect”.

And the “cytotoxicity (LDH release)” value (neutrophils [12])?
The value was “not cytotoxic”.

B1: SLPI: physiologic inhibitor, human Secretory Leukocyte Protease Inhibitor (protein, UniProt P03973 26-132, looked up)
Antileukoproteinase: SGKSFKAGVCPPKKSAQCLRYKKPECQSDWQCPGKKRCCPDTCGIKCLDPVDTPNPTRRKPGKCPVTYGQCLMLNPPNFCEMDGQCKRDLKCCMGMCGKSCVSPVKA
With B1 as the molecule, how does the “blocking” value [1] read?
The value was “effectively blocked degradation”.

And the “block of neutrophil elastase” value (neutrophil elastase [13])?
Its value is “blocks”.

What about the “block of Cathepsin G” value (Cathepsin G) of the same molecule?
Its value is “blocks”.

And the “block of Proteinase 3” value (Proteinase 3)?
The value was “not”.

And the “inhibition” value (Neutrophil elastase [2])?
Its value is “completely inhibited”.
